Measurements: PMC6832219, “Synthesis of Novel Baicalein Amino Acid Derivatives and Biological Evaluation as Neuroprotective Agents” (Molecules, 2019)

Test system: chick chorioallantoic membrane (CAM)
Assay: Angiogenesis assay on chick chorioallantoic membrane (CAM), gelatin sponge
Assay type: in vivo
Conditions: 1 and 4 mg/mL on gelatin sponge
Method: Especially multi-effective neuroprotective agents present positive effects to neurosurgical patients. According to the references, baicalein can promote angiogenesis. Analogously, the angiogenesis activities of compound 8 were evaluated by a CAM assay (Figure 4 and Figure 5). The model was established according to our previous work. After implantation, the sponge is treated with a stimulator of blood vessel formation in the absence or presence of an angiogenesis inhibitor. […] The high survival rate of embryos and normal growth of medium and large vessels (inner diameter > 50 µm) indicates successful modeling and low toxicity of compound 8 […] (Figure 5). Suppression of small vessels (inner diameter < 50 µm) were recognized as angiogenesis activity. […]
Fertilized White Leghorn chicken eggs (50–65 g), provided by the Chinese Academy of Agricultural Sciences, were placed in an incubator as soon as embryogenesis started, and were kept under constant humidity of 65% at 37 °C. […] Quantitative evaluation of the angiogenic response, expressed as microvessel density, can be obtained by applying a morphometric method of “point counting” on histological CAM sections. Data was analyzed using a t-test of the statistics analysis system; the values were expressed as mean ± SD of six observations, and p < 0.05 was considered significant. […]

O=C(NC(Cc1ccccc1)C(=O)Oc1c(O)cc2oc(-c3ccccc3)cc(=O)c2c1O)OCc1ccccc1 (centres unmarked) [Compound 8, 5,7-dihydroxy-4-oxo-2-phenyl-4H-chromen-6-yl 2-{[(benzyloxy)carbonyl]amino}-3-phenyl-proppanpate]
Toxicity in CAM model (embryo survival, medium and large vessels): low toxicity | Angiogenesis activity on CAM (small vessels) (48 h): dramatically promote small angiogenesis in a dose-dependent manner
